Experimental data: patent US20020034767A1, “Compositions and methods for modulating the activity of G protein-coupled receptor kinases GRK5 and GRK6” (priority 1993, published 2002)
“And” between values parts separate entries of the source, which are not always exact repeats. Identical values can stand only once. One block for each molecule: values may come before it.

How the values were obtained:
GRK6 = target: T1, GRK6 (Homo sapiens, UniProt P43250); test: GRK6 phosphorylation of rhodopsin; assay type: biochemical; conditions: for effect on GRK6 activity: in the presence of Mg2+; for IC50: purified GRK6, read-out: IC50 for inhibiting GRK6; for fold less effective as inhibitor of GRK6 compared to GRK5: GRK6 versus GRK5
T1 construct: The presence of the full length GRK6 cDNA within the genome of the recombinant baculovirus was confirmed; made in house; host or cells: Sf9 insect cells (baculovirus, pBacPAK1)
T1 sequence (P43250 whole entry): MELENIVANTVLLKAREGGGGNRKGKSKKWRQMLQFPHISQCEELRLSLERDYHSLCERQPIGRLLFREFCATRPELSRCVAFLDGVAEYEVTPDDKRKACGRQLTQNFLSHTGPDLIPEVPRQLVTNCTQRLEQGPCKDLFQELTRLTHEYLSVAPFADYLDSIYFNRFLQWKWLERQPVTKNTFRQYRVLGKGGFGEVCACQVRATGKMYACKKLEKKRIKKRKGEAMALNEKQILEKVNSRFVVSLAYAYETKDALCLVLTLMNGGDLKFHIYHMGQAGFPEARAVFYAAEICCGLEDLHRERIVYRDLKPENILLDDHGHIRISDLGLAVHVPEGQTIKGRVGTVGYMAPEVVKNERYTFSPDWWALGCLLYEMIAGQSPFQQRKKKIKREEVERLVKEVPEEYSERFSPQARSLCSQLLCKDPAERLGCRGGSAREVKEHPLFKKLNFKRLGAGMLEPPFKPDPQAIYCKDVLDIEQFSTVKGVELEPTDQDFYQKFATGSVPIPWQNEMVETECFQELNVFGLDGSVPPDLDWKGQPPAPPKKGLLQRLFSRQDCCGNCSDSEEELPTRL

GRK5 [1] = target: T2, GRK5 (Homo sapiens, UniProt P34947); test: GRK5 phosphorylation of rhodopsin (receptor phosphorylation); assay type: biochemical; conditions: purified GRK5; read-out: IC50 for inhibiting GRK5
T2 construct: The GRK5 ORF was initially excised by restriction digestion of the full length clone pGRK5 using NaeI and SmaI; made in house; host or cells: Sf9 insect cells (baculovirus, pBacPAK1)
T2 sequence (P34947 whole entry): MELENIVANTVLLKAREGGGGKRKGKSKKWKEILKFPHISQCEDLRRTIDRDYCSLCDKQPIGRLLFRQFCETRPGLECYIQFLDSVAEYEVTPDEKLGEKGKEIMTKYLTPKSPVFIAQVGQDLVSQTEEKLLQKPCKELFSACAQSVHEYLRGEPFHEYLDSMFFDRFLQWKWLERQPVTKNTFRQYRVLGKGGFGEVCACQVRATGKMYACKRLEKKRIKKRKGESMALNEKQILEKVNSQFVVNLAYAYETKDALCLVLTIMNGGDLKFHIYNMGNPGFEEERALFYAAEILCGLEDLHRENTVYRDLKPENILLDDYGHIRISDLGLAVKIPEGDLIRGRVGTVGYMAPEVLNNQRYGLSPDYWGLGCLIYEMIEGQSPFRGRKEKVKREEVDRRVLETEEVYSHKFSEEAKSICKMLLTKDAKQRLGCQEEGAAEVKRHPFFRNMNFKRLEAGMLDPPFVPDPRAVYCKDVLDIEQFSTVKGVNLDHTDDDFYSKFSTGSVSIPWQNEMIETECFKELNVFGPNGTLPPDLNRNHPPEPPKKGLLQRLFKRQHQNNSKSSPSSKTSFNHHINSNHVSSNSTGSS

GRK5 [2] = target: T2, GRK5; test: as above; assay type: biochemical; conditions: for reversal of heparin inhibition of GRK5: in presence of heparin
Procedure: Rod outer segments (ROS) were prepared in accordance with methods known to those skilled in the art. Rhodopsin kinase free membranes were prepared by suspending the ROS in 50 mM Tris-HCl, pH 8.0, 5 mM EDTA, 5M urea and sonicating. The urea treated ROS were washed several times by centrifugation and resuspended in 50 mM Tris-HCl, pH 7.5 at a protein concentration of ˜1 mg/ml. Phosphorylation reactions contained 5 μg of total protein from the Sf9 cell supernatants expressing either GRK5 or βARK, urea treated ROS (80 pmol rhodopsin), 20 mM Tris-HCl, pH 7.5, 2 mM EDTA, 6 mM MgCl2 and 0.1 mM [γ-^32P] ATP, in a total reaction volume of 30 μl. When the effect of G protein βγ subunits was assessed, the reactions also contained 0.25 mM dithiothreitol, 0.01% Lubrol and 62 mM NaCl with or without 100 nM βγ subunits. Reactions were incubated at 30° C. for 15 minutes and then stopped by the addition of 50 μl of SDS sample buffer. Samples were electrophoresed on a 10% homogeneous SDS polyacrylamide gel by the method of Laemmli which is well known to those skilled in the art. Gels were dried and autoradiographed at room temperature for 30-120 minutes. The rhodopsin bands in the gel were then cut and counted in a scintillation counter.

GRK5 [3] = target: T2, GRK5; test: GRK5 autophosphorylation; assay type: biochemical
βARK = target: T3, βARK (Bos taurus, UniProt P21146); conditions: cited from earlier work
T3 sequence (P21146 1-689): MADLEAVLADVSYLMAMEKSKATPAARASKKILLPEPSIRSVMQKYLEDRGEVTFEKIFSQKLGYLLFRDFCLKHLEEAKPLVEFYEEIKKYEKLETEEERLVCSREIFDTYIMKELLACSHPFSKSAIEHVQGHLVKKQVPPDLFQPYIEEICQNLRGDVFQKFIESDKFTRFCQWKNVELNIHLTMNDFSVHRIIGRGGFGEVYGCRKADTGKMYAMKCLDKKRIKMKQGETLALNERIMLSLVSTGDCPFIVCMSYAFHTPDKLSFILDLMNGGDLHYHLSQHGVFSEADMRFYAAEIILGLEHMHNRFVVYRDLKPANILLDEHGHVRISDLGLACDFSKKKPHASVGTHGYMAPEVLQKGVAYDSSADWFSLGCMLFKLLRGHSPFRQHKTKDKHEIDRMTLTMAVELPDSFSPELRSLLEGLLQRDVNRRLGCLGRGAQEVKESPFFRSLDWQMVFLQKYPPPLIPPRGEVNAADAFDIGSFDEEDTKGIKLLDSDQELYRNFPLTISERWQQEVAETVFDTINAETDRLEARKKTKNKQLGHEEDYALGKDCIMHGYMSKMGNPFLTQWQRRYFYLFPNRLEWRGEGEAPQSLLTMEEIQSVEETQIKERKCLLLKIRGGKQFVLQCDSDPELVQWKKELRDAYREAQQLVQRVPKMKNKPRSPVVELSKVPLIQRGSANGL

rhodopsin kinase = target: T4, rhodopsin kinase (Bos taurus, UniProt P28327); conditions: cited from earlier work
T4 sequence (P28327 1-561): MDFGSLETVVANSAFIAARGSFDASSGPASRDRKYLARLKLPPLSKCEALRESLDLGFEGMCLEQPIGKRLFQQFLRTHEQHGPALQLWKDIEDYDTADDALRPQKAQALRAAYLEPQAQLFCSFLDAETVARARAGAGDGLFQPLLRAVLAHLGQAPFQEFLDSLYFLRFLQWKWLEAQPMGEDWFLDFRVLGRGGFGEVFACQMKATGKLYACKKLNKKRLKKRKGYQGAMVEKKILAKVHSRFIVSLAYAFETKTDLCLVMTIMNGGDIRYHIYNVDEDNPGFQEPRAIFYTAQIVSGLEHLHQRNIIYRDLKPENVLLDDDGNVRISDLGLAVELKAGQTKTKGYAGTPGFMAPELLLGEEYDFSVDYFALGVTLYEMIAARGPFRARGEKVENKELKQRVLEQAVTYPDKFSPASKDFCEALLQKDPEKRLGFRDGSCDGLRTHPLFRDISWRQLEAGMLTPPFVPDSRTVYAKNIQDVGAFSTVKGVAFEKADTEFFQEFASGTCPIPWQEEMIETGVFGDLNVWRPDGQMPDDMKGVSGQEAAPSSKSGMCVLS

casein kinase II = casein kinase II (Homo sapiens, UniProt P67870+P68400); conditions: cited from earlier work
Chain of casein kinase II (P68400 whole entry): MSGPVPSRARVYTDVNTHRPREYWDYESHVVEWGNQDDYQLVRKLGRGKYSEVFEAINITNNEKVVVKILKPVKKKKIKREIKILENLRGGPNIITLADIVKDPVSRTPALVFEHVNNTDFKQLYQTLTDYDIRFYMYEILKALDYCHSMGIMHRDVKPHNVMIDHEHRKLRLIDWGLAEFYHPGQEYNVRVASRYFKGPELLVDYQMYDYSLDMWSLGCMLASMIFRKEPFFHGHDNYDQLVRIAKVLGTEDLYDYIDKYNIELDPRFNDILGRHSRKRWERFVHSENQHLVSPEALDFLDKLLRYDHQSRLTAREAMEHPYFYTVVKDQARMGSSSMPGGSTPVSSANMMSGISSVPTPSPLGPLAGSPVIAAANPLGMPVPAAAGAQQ
Chain of casein kinase II (P67870 whole entry): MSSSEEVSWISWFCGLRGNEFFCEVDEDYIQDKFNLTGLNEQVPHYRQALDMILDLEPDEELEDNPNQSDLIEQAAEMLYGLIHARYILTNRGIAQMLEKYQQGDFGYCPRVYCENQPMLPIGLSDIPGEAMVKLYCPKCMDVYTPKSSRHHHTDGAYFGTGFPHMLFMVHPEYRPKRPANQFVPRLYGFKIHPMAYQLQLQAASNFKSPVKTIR

effect on GRK6 activity (GRK6): inhibited
Molecule: [Ca+2] [Ca^2+]

IC50 (GRK5 [1]): ~170 µM
Molecule: CC1CNCCN1S(=O)(=O)c1cccc2cnccc12 (stereo not drawn) [H-7]

Molecule: Cl [NaCl]
IC50 (GRK5 [2]; IC50 for inhibiting GRK5 (receptor phosphorylation), purified GRK5): ~60000 µM and 58000 µM
IC50 (GRK5 [3]): ~70000 µM

effect on GRK6 activity (GRK6): inhibited
Molecule: [Zn+2] [Zn^2+]

reversal of heparin inhibition of GRK5 (GRK5 [2]): effectively reversed
activation of GRK5 (GRK5 [2]; optimal concentrations): ~1.5 fold
enhancement of GRK6 activity (GRK6; optimal concentration range 0.1 to 0.5 mM): ~1.4 fold
Molecule: NCCCCNCCCN [spermidine]
inhibition of βARK (βARK): weak inhibitors
effect on rhodopsin kinase (rhodopsin kinase): activators
effect on casein kinase (casein kinase II): activators

reversal of heparin inhibition of GRK5 (GRK5 [2]): effectively reversed
activation of GRK5 (GRK5 [2]; optimal concentrations): ~1.8 fold
elevation of GRK6 phosphorylation of rhodopsin (GRK6; optimal concentration range 0.01 to 0.1 mM): ~1.5 fold
Molecule: NCCCNCCCCNCCCN [spermine]
inhibition of βARK (βARK): weak inhibitors
effect on rhodopsin kinase (rhodopsin kinase): activators
effect on casein kinase (casein kinase II): activators

IC50 (GRK5 [1]): ~0.0006 µM
IC50 (GRK6): 0.007 µM
Molecule: dextran sulfate

IC50 (GRK5 [1]): ~0.001 µM
inhibition of GRK5 autophosphorylation (GRK5 [3]; concentration of 10 μM): does not inhibit
IC50 (GRK6): ~0.015 µM
Molecule: heparin
IC50 (rhodopsin kinase): ~200 µM

fold less effective as inhibitor of GRK6 compared to GRK5 (GRK6): ~6 fold
IC50 (GRK6): 0.487 µM
Molecule: polyaspartic acid

fold less effective as inhibitor of GRK6 compared to GRK5 (GRK6): ~16 fold
IC50 (GRK6): 0.4 µM
Molecule: polyglutamic acid

Molecule: polylysine
inhibition of βARK (βARK): weak inhibitors
effect on rhodopsin kinase (rhodopsin kinase): activators
reversal of heparin inhibition of GRK5 (GRK5 [2]): effectively reversed
activation of GRK5 (GRK5 [2]; optimal concentration of 10 μM): ~2.6 fold
effect on casein kinase (casein kinase II): activators
increase in GRK6 phosphorylation (GRK6; optimal range 1 to 10 μM): ~2.7 fold
